# US12281301B2, “Sequencing-based proteomics” (THE BROAD INSTITUTE, INC., priority 2018, dated 2025)
# Tested on: THP-1 monocytes
# Assay: PATTERNS protein quantification in tagged THP-1 monocyte library
# Format: cell-based, human
# Details: 6 hours treatment; out of 400 proteins represented; including FOS and EGR1
# Experimental: RNP-mediated gene tagging in other cell lines. Non-confluent cells were trypsinized and/or washed and adjusted to a density 2E7/ml in warm OptiMEM. 125 μl of cell suspension were mixed with 125 μl OptiMEM containing 2.5 μg donor DNA, 2.5 μg Cas9 protein, and 250 ng sgRNA. The mix was incubated for 15 minutes at room temperature, and transferred to a 4 mm electroporation cuvette (BioRad). Cells were electroporated on a Gene Pulser Xcell Electroporation System (BioRad) using the following settings: 265V, 975 μF, and 720 Ohm. Cells were recovered immediately in 5 ml of pre-warmed growth medium. For library generation in THP-1 and SKMEL28 cells, the above protocol was scaled up 10-fold.
# FACS sorting. […]
# Analysis of Silent Barcode Sequencing data. Silent barcode bases were extracted from raw sequencing reads and were converted to a 28-bit integer value. Using a barcode lookup table, reads were collapsed into target loci, and a matrix of screening conditions vs. sorted bins was incremented for every successfully mapped read. Total read counts in every position of the matrix were normalized by the ratio of sorted cells (from control sort for simplification) divided by total reads with correctly mapped 10 bp reverse primer sequence, which helped to even out PCR saturation artifacts. […] All data were analyzed using a custom JavaScript-based analysis tool that is available online.
smiles,measurement,value
"CCCCCCCCCCCCCC(=O)O[C@@H]1[C@@H](C)[C@@]2(O)[C@@H](C=C(CO)C[C@]3(O)C(=O)C(C)=C[C@@H]23)[C@@H]2C(C)(C)[C@]12OC(C)=O [PMA, Phorbol 12-Myristate 13-Acetate]","proteins whose levels were altered, by PATTERNS",four proteins
